Test [1] concerns the target T1, human GCN2 full-length protein (Homo sapiens, UniProt Q9P2K8).
T1 construct: purchased Carna Biosciences, Inc
Briefly: GCN2 enzyme inhibition assay (LanthaScreen TR-FRET). The class given is biochemical. To be noted: GCN2 enzyme inhibitory activity at compound concentration of 3 μM, read-out: inhibitory rate. As to the method: GCN2 enzyme was preserved at -70° C. and used. The GCN2 enzyme inhibitory activity of the test compound was measured by the LanthaScreenTR-FRET (Time Resolved Fluorescence Resonance Energy Transfer) method (manufactured by ThermoFisher). […] Then, GCN2 enzyme solution diluted with the assay buffer was added by 2 μL to each well. The enzyme solution was not added to a part of the wells to give a control group. After incubation at room temperature for 1 hr, 570 μM ATP solution containing 390 nM […] physiological protein substrate (ThermoFisher) was added by 2 μL. After reaction at room temperature for 1 hr, TR-FRET Dilution Buffer (ThermoFisher) containing 4 nM Terbium-labeled anti-elF2alpha [[…]] antibody (ThermoFisher) dissolved therein was added by 2 μL to each well. After standing at room temperature for 1 hr, time decomposition fluorescence measurement was performed on platereader Envision (manufactured by PerkinElmer).

Test [2] relates to osteosarcoma cell line U-2-OS. Description: In vitro cell proliferation inhibition assay (CellTiter-Glo, low amino acid media). The test is classed as cell-based. Particulars: McCoy's 5A low amino acid media; for inhibition at 0.1 µM: Homo sapiens, U2OS, 72 h, cell proliferation inhibitory rate; for inhibitory rate: 72 hr. As to the method: A cell suspension (40 μL) (1000 cells/well) of osteosarcoma cell line U-2-OS obtained from ATCC (American Type Culture Collection) was seeded on a 384 plate using McCoy's 5A low amino acid media (amino acid content 25%). The seeded cells were incubated (37° C., 5% CO2) overnight to 24 hr at the longest. Each example compound was dissolved (10 mM) in DMSO, delivered to wells by using TECAN HP D300 (TECAN), and the plate was incubated for 72 hr (37° C., 5% CO2). A well without addition of compound was treated similarly as a control group. Celltiter-Glo (registered trade mark) Luminescent Cell Viability Assay reagent (Promega KK) equilibrated at room temperature was added (40 μL/well) to cells in each well before compound treatment (untreated group) and 72 hours after compound treatment. After incubation for 10 min, cell proliferation inhibitory rate was measured by the amount of ATP which is a cell viability marker. Luminescence of cells showing ATP amount was measured using ARVO MX (PerkinElmer). Based on the luminescence values of the untreatment group, the control group without addition of Example compound solution, and the treatment group with addition of Example compound, the cell proliferation inhibitory rate (%) of the test compound at a compound concentration of 100 nM was calculated by the following formula and the results thereof are shown in Tables 4-1, 4-2. Inhibitory rate (%)=(1−(luminescence value of treatment group−luminescence value of untreatment group)÷(luminescence value of control group−luminescence value of untreatment group))×100

Inhibition and inhibitory rate data for 24 compounds are collected here from US10696651B2, “Heterocyclic compound” (Takeda Pharmaceutical Company Limited, priority 2016, dated 2020).

Counter-ions that a name gives are not always drawn. Like-named read-outs stand apart in the source and are kept apart here.

T1 sequence (Q9P2K8 whole entry): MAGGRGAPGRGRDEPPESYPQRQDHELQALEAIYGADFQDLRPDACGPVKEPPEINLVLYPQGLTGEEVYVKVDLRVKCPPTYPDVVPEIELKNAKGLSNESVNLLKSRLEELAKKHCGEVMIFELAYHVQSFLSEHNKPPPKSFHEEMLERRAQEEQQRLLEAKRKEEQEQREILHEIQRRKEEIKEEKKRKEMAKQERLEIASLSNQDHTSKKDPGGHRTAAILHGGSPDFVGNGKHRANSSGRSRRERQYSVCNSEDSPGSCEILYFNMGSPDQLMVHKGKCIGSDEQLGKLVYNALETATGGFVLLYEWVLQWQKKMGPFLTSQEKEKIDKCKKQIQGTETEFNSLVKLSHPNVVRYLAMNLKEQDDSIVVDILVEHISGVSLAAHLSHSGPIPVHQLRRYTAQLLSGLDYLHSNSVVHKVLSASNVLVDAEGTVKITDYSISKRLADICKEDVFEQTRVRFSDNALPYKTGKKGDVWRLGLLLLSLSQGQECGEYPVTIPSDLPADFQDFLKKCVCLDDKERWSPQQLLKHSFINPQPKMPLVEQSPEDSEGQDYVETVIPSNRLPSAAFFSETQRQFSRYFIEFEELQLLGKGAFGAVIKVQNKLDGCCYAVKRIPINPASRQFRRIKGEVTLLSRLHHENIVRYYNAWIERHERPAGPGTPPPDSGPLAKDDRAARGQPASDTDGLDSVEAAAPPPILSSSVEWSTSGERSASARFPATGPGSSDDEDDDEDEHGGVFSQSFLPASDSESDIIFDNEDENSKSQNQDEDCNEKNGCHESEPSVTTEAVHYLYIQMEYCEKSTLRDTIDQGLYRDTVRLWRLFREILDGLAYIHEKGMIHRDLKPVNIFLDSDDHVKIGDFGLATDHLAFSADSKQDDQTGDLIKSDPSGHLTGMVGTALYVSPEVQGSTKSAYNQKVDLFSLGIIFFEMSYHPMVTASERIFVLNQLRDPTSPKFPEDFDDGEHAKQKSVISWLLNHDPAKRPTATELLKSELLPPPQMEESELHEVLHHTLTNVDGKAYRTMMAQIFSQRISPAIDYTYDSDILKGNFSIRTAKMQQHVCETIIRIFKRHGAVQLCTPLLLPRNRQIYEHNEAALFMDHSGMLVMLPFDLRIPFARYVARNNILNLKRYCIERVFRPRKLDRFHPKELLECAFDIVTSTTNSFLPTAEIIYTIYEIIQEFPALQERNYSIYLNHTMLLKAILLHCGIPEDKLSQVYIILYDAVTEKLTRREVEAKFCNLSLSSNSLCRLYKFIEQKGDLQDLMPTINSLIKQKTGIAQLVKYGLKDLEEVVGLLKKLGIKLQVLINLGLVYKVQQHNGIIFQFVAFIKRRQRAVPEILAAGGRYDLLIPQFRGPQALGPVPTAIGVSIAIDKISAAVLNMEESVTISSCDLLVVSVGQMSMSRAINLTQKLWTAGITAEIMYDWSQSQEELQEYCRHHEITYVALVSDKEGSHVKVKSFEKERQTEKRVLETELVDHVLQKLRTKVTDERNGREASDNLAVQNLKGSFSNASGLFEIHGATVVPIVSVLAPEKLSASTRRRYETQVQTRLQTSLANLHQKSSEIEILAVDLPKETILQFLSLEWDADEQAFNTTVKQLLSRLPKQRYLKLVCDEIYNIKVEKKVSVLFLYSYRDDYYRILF

As for `O=S(=O)(Nc1ccc(F)c(C#Cc2cnc3[nH]ncc3c2)c1F)c1cc(Cl)cc(CO)c1Cl` [Example 1, 2,5-dichloro-N-(2,4-difluoro-3-(1H-pyrazolo[3,4-b]pyridin-5-ylethynyl)phenyl)-3-(hydroxymethyl)benzenesulfonamide], the inhibition at 3 µM in test [1] (Table 3-1) stood at 100%. In test [2] (Table 4-1), this compound gave an inhibition at 0.1 µM of 66%.
Consider `Cc1ncc(Cl)cc1S(=O)(=O)Nc1ccc(F)c(C#Cc2cnc3[nH]ncc3c2)c1F` [Example 2, 5-chloro-N-(2,4-difluoro-3-(1H-pyrazolo[3,4-b]pyridin-5-ylethynyl)phenyl)-2-methylpyridine-3-sulfonamide], for which the inhibition at 3 µM in test [1] (Table 3-1) amounted to 100%. In test [2] (Table 4-1), the inhibition at 0.1 µM turned out to be 92%.
For `COc1ncc(Cl)cc1S(=O)(=O)Nc1ccc(F)c(C#Cc2cnc3[nH]ncc3c2)c1F` [Example 5, 5-chloro-N-(2,4-difluoro-3-(1H-pyrazolo[3,4-b]pyridin-5-ylethynyl)phenyl)-2-methoxypyridine-3-sulfonamide], in that order: 99% and 91%.
Turning to `O=S(=O)(Nc1ccc(F)c(C#Cc2cnc3[nH]ncc3c2)c1F)c1cc(Cl)cc2c1OCC2` [Example 8, 5-chloro-N-(2,4-difluoro-3-(1H-pyrazolo[3,4-b]pyridin-5-ylethynyl)phenyl)-2,3-dihydro-1-benzofuran-7-sulfonamide], the inhibition at 3 µM in test [1] (Table 3-1) was determined as 100%. In addition, the inhibition at 0.1 µM in test [2] (Table 4-1) worked out at 78%.
For `O=S(=O)(Nc1ccc(F)c(C#Cc2cnc3[nH]ncc3c2)c1F)c1cc(Cl)ccc1Cl` [Example 10, 2,5-dichloro-N-(2,4-difluoro-3-(1H-pyrazolo[3,4-b]pyridin-5-ylethynyl)phenyl)benzenesulfonamide TFA Salt], in test [1] (Table 3-1), the inhibition at 3 µM worked out at 99%. In addition, in test [2] (Table 4-1, TFA Salt), the inhibitory rate is recorded as 63%.
In test [2] (Table 4-1), `Nc1ncc(C#Cc2c(F)ccc(NS(=O)(=O)c3cc(Cl)ccc3Cl)c2F)cn1` [Example 13, N-(3-((2-aminopyrimidin-5-yl)ethynyl)-2,4-difluorophenyl)-2,5-dichlorobenzenesulfonamide TFA Salt] showed an inhibition at 0.1 µM of 70%.
Regarding `Cc1ccc(Cl)cc1S(=O)(=O)Nc1ccc(F)c(C#Cc2cnc3[nH]ncc3c2)c1F` [Example 15, 5-chloro-N-(2,4-difluoro-3-(1H-pyrazolo[3,4-b]pyridin-5-ylethynyl)phenyl)-2-methylbenzenesulfonamide], in test [1] (Table 3-1), the inhibition at 3 µM is 100%. Besides, the inhibition at 0.1 µM in test [2] (Table 4-1) is 75%.
For `Nc1ncc(C#Cc2c(F)ccc(NS(=O)(=O)c3cc(Cl)ccc3Cl)c2F)cn1` [Example 17, N-(3-((2-aminopyrimidin-5-yl)ethynyl)-2,4-difluorophenyl)-2,5-dichlorobenzenesulfonamide], the inhibition at 3 µM in test [1] (Table 3-1) was determined as 99%. In test [2] (Table 4-1), this compound had an inhibitory rate of 73%.
As for `Cc1cc(Br)cc(S(=O)(=O)Nc2ccc(F)c(C#Cc3cnc4[nH]ncc4c3)c2F)c1` [Example 18, 3-bromo-N-(2,4-difluoro-3-(1H-pyrazolo[3,4-b]pyridin-5-ylethynyl)phenyl)-5-methylbenzenesulfonamide], the inhibition at 3 µM in test [1] (Table 3-1) turned out to be 100%. In test [2] (Table 4-1), this compound gave an inhibition at 0.1 µM of 63%.
The corresponding values for `Cc1ccc(Cl)cc1S(=O)(=O)Nc1ccc(F)c(C#Cc2cnc(N)nc2)c1F` [Example 19, N-(3-((2-aminopyrimidin-5-yl)ethynyl)-2,4-difluorophenyl)-5-chloro-2-methylbenzenesulfonamide] are 98% and 87%.
For `O=S(=O)(Nc1ccc(F)c(C#Cc2cnc3[nH]ncc3c2)c1F)c1cc(Cl)cc(Cl)c1Cl` [Example 20, 2,3,5-trichloro-N-(2,4-difluoro-3-(1H-pyrazolo[3,4-b]pyridin-5-ylethynyl)phenyl)benzenesulfonamide], in test [1] (Table 3-1), the inhibition at 3 µM was 100%. Besides, the inhibition at 0.1 µM in test [2] (Table 4-1) is 63%.
Turning to `O=S(=O)(Nc1ccc(F)c(C#Cc2cnc3[nH]ncc3c2)c1F)c1c(Cl)c(Cl)cc(Cl)c1Cl` [Example 23, 2,3,5,6-tetrachloro-N-(2,4-difluoro-3-(1H-pyrazolo[3,4-b]pyridin-5-ylethynyl)phenyl)benzenesulfonamide], in test [1] (Table 3-1), the inhibition at 3 µM is 100%. In test [2] (Table 4-1), this compound displayed an inhibition at 0.1 µM of 72%.
Regarding `O=S(=O)(Nc1ccc(F)c(C#Cc2cnc3[nH]ncc3c2)c1F)c1cc(Br)ccc1F` [Example 24, 5-bromo-N-(2,4-difluoro-3-(1H-pyrazolo[3,4-b]pyridin-5-ylethynyl)phenyl)-2-fluorobenzenesulfonamide TFA Salt], the inhibition at 3 µM in test [1] (Table 3-1) was found to be 99%. In test [2] (Table 4-1), this compound gave an inhibition at 0.1 µM of 37%.
As for `O=S(=O)(Nc1ccc(F)c(C#Cc2cnc3[nH]ncc3c2)c1F)c1cc(Cl)cc(Cl)c1` [Example 25, 3,5-dichloro-N-(2,4-difluoro-3-(1H-pyrazolo[3,4-b]pyridin-5-ylethynyl)phenyl)benzenesulfonamide], the inhibition at 3 µM in test [1] (Table 3-1) was 99%. Further, the inhibition at 0.1 µM in test [2] (Table 4-1) stood at 44%.
Take `Cc1ccc(C)c(S(=O)(=O)Nc2ccc(F)c(C#Cc3cnc4[nH]ncc4c3)c2F)c1` [Example 112, N-(2,4-difluoro-3-(1H-pyrazolo[3,4-b]pyridin-5-ylethynyl)phenyl)-2,5-dimethylbenzenesulfonamide TFA Salt]: the inhibition at 3 µM in test [1] (Table 3-1) amounted to 99%.
`COc1ncc(Cl)cc1S(=O)(=O)Nc1cccc(C#Cc2cnc(N)nc2)c1F` [Example 123, N-(3-((2-aminopyrimidin-5-yl)ethynyl)-2-fluorophenyl)-5-chloro-2-methoxypyridine-3-sulfonamide]: in test [1] (Table 3-1), the inhibition at 3 µM came out at 100%.
Regarding `COc1ncc(Cl)cc1S(=O)(=O)Nc1ccc(Cl)c(C#Cc2cnc(N)nc2)c1F` [Example 124, N-(3-((2-aminopyrimidin-5-yl)ethynyl)-4-chloro-2-fluorophenyl)-5-chloro-2-methoxypyridine-3-sulfonamide], the inhibition at 3 µM in test [1] (Table 3-1) stood at 100%.
For the compound `COc1ncc(Cl)cc1S(=O)(=O)Nc1ccc(F)c(C#Cc2cnc(N)nc2)c1Cl` [Example 125, N-(3-((2-aminopyrimidin-5-yl)ethynyl)-2-chloro-4-fluorophenyl)-5-chloro-2-methoxypyridine-3-sulfonamide], in test [1] (Table 3-1), the inhibition at 3 µM stood at 100%.
Take `COc1ncc(Cl)cc1S(=O)(=O)Nc1cccc(C#Cc2cnc(N)nc2)c1Cl` [Example 126, N-(3-((2-aminopyrimidin-5-yl)ethynyl)-2-chlorophenyl)-5-chloro-2-methoxypyridine-3-sulfonamide]: the inhibition at 3 µM in test [1] (Table 3-1) was found to be 100%.
Consider `COc1c(CO)cc(Cl)cc1S(=O)(=O)Nc1ccc(F)c(C#Cc2cnc(N)c(C)n2)c1F` [Example 131, N-(3-((5-amino-6-methylpyrazin-2-yl)ethynyl)-2,4-difluorophenyl)-5-chloro-3-(hydroxymethyl)-2-methoxybenzenesulfonamide], for which the inhibition at 3 µM in test [1] (Table 3-2) is 99%.
Take `Nc1ncc(C#Cc2c(F)ccc(NS(=O)(=O)c3cc(Cl)cnc3C(F)(F)F)c2F)cn1` [Example 136, N-(3-((2-aminopyrimidin-5-yl)ethynyl)-2,4-difluorophenyl)-5-chloro-2-(trifluoromethyl)pyridine-3-sulfonamide]: in test [1] (Table 3-2), the inhibition at 3 µM turned out to be 99%.
`COc1c(CO)cc(Cl)cc1S(=O)(=O)Nc1ccc(F)c(C#Cc2cnc(NCC3(O)CC3)nc2)c1F` [Example 154, 5-chloro-N-(2,4-difluoro-3-((2-(((1-hydroxycyclopropyl)methyl)amino)pyrimidin-5-yl)ethynyl)phenyl)-3-(hydroxymethyl)-2-methoxybenzenesulfonamide] returned an inhibition at 0.1 µM in test [2] (Table 4-2) of 70%.
For `C[C@H](CO)Nc1ncc(C#Cc2c(F)ccc(NS(=O)(=O)c3cc(Cl)cc4c3OCC4O)c2F)cn1` (stereo partly drawn) [Example 187, 5-chloro-N-(2,4-difluoro-3-((2-(((2R)-1-hydroxypropan-2-yl)amino)pyrimidin-5-yl)ethynyl)phenyl)-3-hydroxy-2,3-dihydro-1-benzofuran-7-sulfonamide], the inhibitory rate in test [2] (Table 4-2) is recorded as 64%.
Consider `Cn1ncc2c(S(=O)(=O)Nc3ccc(F)c(C#Cc4cnc(N)nc4)c3F)cc(Cl)cc21` [Example 192, N-(3-((2-aminopyrimidin-5-yl)ethynyl)-2,4-difluorophenyl)-6-chloro-1-methyl-1H-indazole-4-sulfonamide], for which, in test [2] (Table 4-2), the inhibition at 0.1 µM was 43%.
